Test results: patent US11407728B2, “Derivatives of EPA endocannabinoid epoxides as anti-inflammatory, anti-cancerous, anti-angiogenc and antiplatelet aggregation compounds” (The Board of Trustees of the University of Illinois, priority 2017, dated 2022)

Key:
[1] = test system: mouse BV-2 microglial cells; assay: Anti-inflammatory assay in BV-2 microglial cells, IL-6 secretion (ELISA) after LPS stimulation; format: cell-based; settings: BV-2 cells pre-incubated 4 hours with varying concentrations, 25 ng/mL LPS, media collected at 24 hours
Method: FIG. 3A, FIG. 3B, FIG. 3C and FIG. 3D show the dose-dependent NO and Il-6 studies for 17,18-EEQ-EA and 8,9-EEQ-EA. BV-2 microglial cells were pre-incubated with varying concentrations of 17,18-EEQ-EA or 8,9-EEQ-EA for 4 hours followed by LPS (25 ng/mL) stimulation. Culture medium was collected after 24 hours and analyzed for NO (A, C) and IL-6 (B, D) production. Significant P values are indicated as *** (P≤0.001), ** (P≤0.01), and * (P≤0.05). Values are expressed as mean±SEM and +/− indicates LPS added or LPS not added. * represents P<0.05, ** represents P<0.01, *** represents P<0.001, **** represents P<0.0001 relative to LPS.
Experiments were performed with mouse BV-2 microglial cells. Cells were grown and maintained in Dulbecco's modified Eagle's medium supplemented with 10% fetal bovine serum, 1% streptomycin and penicillin at 37° C. in a 5% CO2 humidified air atmosphere. BV-2 cells were seeded in 24-well plates (200K cells/mL) and grown to 80-90% confluency. […] To determine nitrite and IL-6 production, media was collected at 24 hours and the production of nitric oxide (NO) was determined by using the Greiss method and IL-6 secretion was measured using ELISA (no. 583371; Cayman Chemical).

recombinant sEH = target: T1, recombinant sEH (Homo sapiens, UniProt P34913); assay: Soluble epoxide hydrolase (sEH) hydrolysis kinetics; format: in vitro ADME; settings: 8,9-EEQ-EA versus 17,18 EEQ-EA
T1 sequence (P34913 1-555): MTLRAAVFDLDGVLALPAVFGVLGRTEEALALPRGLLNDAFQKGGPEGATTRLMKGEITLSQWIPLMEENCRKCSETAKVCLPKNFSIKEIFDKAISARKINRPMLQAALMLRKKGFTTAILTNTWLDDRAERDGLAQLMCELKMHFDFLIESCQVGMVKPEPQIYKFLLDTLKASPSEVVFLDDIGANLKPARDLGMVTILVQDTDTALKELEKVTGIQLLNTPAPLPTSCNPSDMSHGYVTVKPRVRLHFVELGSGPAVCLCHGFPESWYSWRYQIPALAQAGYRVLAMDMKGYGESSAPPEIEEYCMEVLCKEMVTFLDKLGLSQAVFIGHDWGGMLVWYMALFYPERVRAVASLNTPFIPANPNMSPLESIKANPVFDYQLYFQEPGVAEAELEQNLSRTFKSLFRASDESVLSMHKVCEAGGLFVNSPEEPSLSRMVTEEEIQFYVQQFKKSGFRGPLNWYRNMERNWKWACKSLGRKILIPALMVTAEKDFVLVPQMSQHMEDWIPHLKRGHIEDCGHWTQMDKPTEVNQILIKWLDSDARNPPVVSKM
Method: (§1) FIG. 4A, FIG. 4B, FIG. 4C and FIG. 4D show FAAH (FIG. 4B and FIG. 4D) and sEH (FIG. 4A and FIG. 4C) hydrolysis of 17,18-EEQ-EA and 8,9-EEQ-EA, respectively. To determine the rate of hydrolysis by sEH, increasing substrate (8,9-EEQ-EA) concentrations were incubated at 37° C. with sEH ([E]final=6 nM). For Vmax and Km values, plots were fitted to the Michaelis-Menten equation using Origin Pro. For FAAH hydrolysis, membranes from rat forebrain tissue were isolated for time-based hydrolysis. Incubations were performed with 100 μg of forebrain protein and 50 μM of substrate for 5, 20 and 40 minutes at 37° C. Both reactions were measured for product conversion using LC-MS/MS.
For soluble epoxide hydrolase (sEH) kinetics, increasing concentrations of substrates (8,9-EEQ-EA (FIG. 4C) and 17,18-EEQ-EA (FIG. 4A)) were incubated with recombinant sEH (final [6 nM]) in a 0.1 mL reaction containing NaPO4 (0.1 M, pH 7.4), bovine serum albumin (0.1 mg/ml) at 37° C. The enzymatic reaction was stopped after 5 min with equal volume of methanol with AUDA (0.5 μM) and centrifuged at 10,000 g for 10 min. The supernatant was saved and quantitated using LC-MS/MS. Data was fit to kinetic curves and the Michaelis-Menten equation was used to calculate Vmax and Km.

[2] = target: T2, fatty acid amide hydrolase (FAAH) (Rattus norvegicus, UniProt P97612); assay: Fatty acid amide hydrolase (FAAH) hydrolysis in rat forebrain membranes; format: in vitro ADME; settings: 50 μM substrate, 100 μg rat forebrain membrane, 5, 20 and 40 minutes, 37° C.
T2 construct: incubated with 100 μg forebrain membrane; from tissue; host or cells: rat forebrain membranes
T2 sequence (P97612 1-579): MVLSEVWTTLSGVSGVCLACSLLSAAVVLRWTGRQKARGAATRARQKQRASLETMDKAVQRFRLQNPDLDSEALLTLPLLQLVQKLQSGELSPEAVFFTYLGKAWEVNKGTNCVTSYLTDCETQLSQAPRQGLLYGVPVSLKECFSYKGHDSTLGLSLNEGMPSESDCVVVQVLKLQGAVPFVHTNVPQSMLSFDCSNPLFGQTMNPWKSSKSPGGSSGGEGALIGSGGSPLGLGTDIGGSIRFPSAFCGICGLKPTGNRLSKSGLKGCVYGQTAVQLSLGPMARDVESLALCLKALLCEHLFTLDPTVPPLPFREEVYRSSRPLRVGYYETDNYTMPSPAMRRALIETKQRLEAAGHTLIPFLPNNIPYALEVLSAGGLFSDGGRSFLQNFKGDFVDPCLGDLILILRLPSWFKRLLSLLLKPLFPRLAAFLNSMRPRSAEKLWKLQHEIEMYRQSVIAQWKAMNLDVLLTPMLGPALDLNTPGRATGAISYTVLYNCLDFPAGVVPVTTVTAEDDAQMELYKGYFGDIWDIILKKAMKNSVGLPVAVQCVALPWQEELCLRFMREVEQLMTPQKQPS
Method: as §1
For fatty acid amide hydrolase (FAAH) kinetics (FIG. 4B and FIG. 4D), rat forebrain membranes were homogenized in buffer (50 mM Tris pH 7.4, 1 mM EDTA and 3 mM MgCl2) and membrane pellet was collected as previously described. 8,9-EEQ-EA or 13,14-EDP-EA (50 μM) was incubated with 100 μg forebrain membrane containing 50 mM Tris (pH 7.4), 1 mM EDTA, 3 mM MgCl2 in a 0.5 mL reaction. Linearity of the reactions was confirmed at 5, 20 and 40 minutes. Reactions were stopped with methanol containing 1 mM PMSF and centrifuged at 10,000 g for 10 min to collect supernatant via LC-MS/MS.

[3] = target: T3, CNR1 (cannabinoid receptor 1) (Homo sapiens, UniProt P21554); assay: Presto-Tango β-arrestin recruitment assay, CNR1; format: cell-based; settings: CNR1-transfected HTLA cells, luminescence, 1 μM AUDA; read-out: EC50 CNR1 activation
T3 construct: Tango fusion module; by own knowledge of the PRESTO-Tango design: V2 tail, TEV cleavage site, tTA; (C); own knowledge of the PRESTO-Tango design; (N); host or cells: HTLA cells
T3 sequence (P21554 whole entry, the tested form may be a part): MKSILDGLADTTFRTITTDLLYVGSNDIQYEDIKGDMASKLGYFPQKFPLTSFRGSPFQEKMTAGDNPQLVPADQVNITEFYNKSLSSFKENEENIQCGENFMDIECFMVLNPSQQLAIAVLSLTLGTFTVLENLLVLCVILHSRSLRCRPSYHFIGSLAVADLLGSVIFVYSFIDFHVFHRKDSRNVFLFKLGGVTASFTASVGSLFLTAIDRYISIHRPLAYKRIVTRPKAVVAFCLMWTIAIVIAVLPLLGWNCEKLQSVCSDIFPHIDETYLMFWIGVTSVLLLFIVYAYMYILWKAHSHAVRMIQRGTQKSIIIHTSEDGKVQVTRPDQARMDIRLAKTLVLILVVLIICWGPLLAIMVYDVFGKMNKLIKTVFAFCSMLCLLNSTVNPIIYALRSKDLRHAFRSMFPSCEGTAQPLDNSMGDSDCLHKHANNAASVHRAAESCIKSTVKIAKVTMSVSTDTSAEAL
Source text: (§2) FIG. 5A and FIG. 5B show dose-response curves for cannabinoid receptor 1 (CNR1) and cannabinoid receptor 2 (CNR2), respectively. The dose response curves were generated by monitoring the relative luminescence of cannabinoid receptor 1 (CNR1) and cannabinoid receptor 2 (CNR2) of PRESTO-Tango gene-transfected HTLA cells for 17,18-EEQ-EA, EPEA, and CP 55940. Values shown are the mean±SEM of experiments performed multiple times (n=3-7) *P<0.05, **P<0.01, and ***P<0.001.
(§3) Binding of the parent compounds to putative receptors CNR1 and CNR2 (cannabinoid receptors 1 & 2) was measured by a Presto-Tango assay (FIG. 5A and FIG. 5B, respectively). These receptors are responsible for many downstream effects of marijuana derivatives as well as other endocannabinoids that have been previously reported in literature and this study explores if our compounds bind to these receptors. HTLA cells were received from the Roth Lab and CNR1 and CNR2 plasmids were purchased from Addgene. […] The following day, media was removed and 40 μL of diluted Bright-Glo solution (Promega, Madison. Wis.) was added to each well and incubated in the dark for 20 min at room temperature before luminescence recordings. Relative luminescence units (RLU) values were normalized to % receptor response, plotted as a function of compound concentration and analyzed using “DoseResp” in OriginPro.

[4] = target: T4, CNR2 (cannabinoid receptor 2) (Homo sapiens, UniProt P34972); assay: Presto-Tango β-arrestin recruitment assay, CNR2; format: cell-based; settings: CNR2-transfected HTLA cells, luminescence, 1 μM AUDA; read-out: EC50 CNR2 activation
T4 construct: Tango fusion module; by own knowledge of the PRESTO-Tango design: V2 tail, TEV cleavage site, tTA; (C); own knowledge of the PRESTO-Tango design; (N); host or cells: HTLA cells
T4 sequence (P34972 whole entry, the tested form may be a part): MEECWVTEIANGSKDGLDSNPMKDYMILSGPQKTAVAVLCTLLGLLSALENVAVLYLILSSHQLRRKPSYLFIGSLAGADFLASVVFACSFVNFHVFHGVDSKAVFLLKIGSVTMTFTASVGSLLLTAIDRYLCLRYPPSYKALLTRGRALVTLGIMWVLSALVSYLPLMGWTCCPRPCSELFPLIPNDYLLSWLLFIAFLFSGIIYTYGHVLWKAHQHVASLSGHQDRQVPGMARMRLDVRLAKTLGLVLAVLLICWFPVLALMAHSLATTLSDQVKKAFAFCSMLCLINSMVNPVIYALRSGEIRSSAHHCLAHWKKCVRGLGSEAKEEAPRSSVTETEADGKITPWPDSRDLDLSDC
Source text: as §2, §3

| SMILES | IL-6 secretion [1] | sEH turnover rate relative to 17,18 EEQ-EA (times) (recombinant sEH) | rate of FAAH hydrolysis to the corresponding EEQ [2] | EC50 [3] [nM] | EC50 [4] [nM] |
| --- | --- | --- | --- | --- | --- |
| CC/C=C\C/C=C\C/C=C\CC1OC1C/C=C\CCCC(=O)NCCO (stereo not drawn) [8,9-EEQ-EA] | reduced IL-6 in a dose-dependent manner | 4 | comparable to the rate of 17, 18-EEQ-EA to 17,18-EEQ |  |  |
| CCC1OC1C/C=C\C/C=C\C/C=C\C/C=C\CCCC(=O)NCCO (stereo not drawn) [17,18-EEQ-EA] | reduced IL-6 in a dose-dependent manner |  |  | 18.5 | 1.4 |
